Experimental findings from patent US4372953A, “Tetrazole derivatives, and anti-ulcer composition containing the same” (Otsuka Pharmaceutical Company, Limited, priority 1980, dated 1983) are described below.

One data set deals with gastric juice secretion. Briefly: Shay rat pylorus ligation method (gastric juice secretion-inhibiting activity). The format is in vivo, male Wistar rats. To be noted: Rattus norvegicus, 4 h, 4 hours after ligation; for inhibition in vivo at 100 mg/kg: duodenal route; for inhibition in vivo at 200 mg/kg: sc, subcutaneous route. How it is done: The pharmacological activities of the compounds (1) were tested by a Shay rat pylorus ligation method (cf. H. Shay et al: Gastroenterol., Vol. 5, page 43, 1945) which is the most popular method for testing of gastric juice secretion-inhibiting activity. The test was carried out by using male Wistar rats, weighing about 170 g and fasting for 24 hours.
Test compounds were administered 30 minutes before the pylorus ligation in a dose of 100 mg/kg in subcutaneous route in case of test compounds 37, 38, 50, 51 and 52, in a dose of 200 mg/kg in subcutaneous route in case of test compounds 105 and 106 and in dose of 100 mg/kg in duodenal route in case of other test compounds, and the volume, total acidity and pepsin activity of the gastric juice were measured 4 hours after the ligation. As a control, a saline solution was administered instead of the test compound. The inhibitory ratio (%) of the test compounds were calculated when the inhibitory activities of the control were counted as zero (0).
(§1) In the table, the inhibitory ratio (%) was evaluated as follows: […]

The test system of a further data set is stress ulcer. Briefly: Stress ulcer (restraint and water immersion). The format is in vivo, male Wistar rats. To be noted: Rattus norvegicus, po, 7 h, read-out: Inhibitory ratio of stress ulcer; for inhibition in vivo: concentration of 1×10^-3 mole; for inhibition in vivo at 300 mg/kg: 0.5% CMC suspension. How it is done: After male Wistar rats weighing about 170 g was fasted for 24 hours, the rats were restrained in a stress cage and dipped in water bath at 23° C. till chest of the animals. After 7 hours, the rats were killed and the stomach was isolated. Into the isolated stomach 10% formalin (8 ml) was poured and settled. The stomach was cut open at the greater curvature, and the length of each ulcer on the membrane was measured. Sum of the length of all ulcers was shown as ulcer index (UI). The test compound was orally administered to the rats before restraint in a stress cage in a dose of 300 mg/kg in the form of 0.5% CMC suspension in case of test compounds 3, 4, 6, 15 and 27 and in a concentration of 1×10^-3 mole in case of other test compounds. As a control, only the solvent (CMC solution) was administered likewise. The inhibitory ratio (%) of stress ulcer of the test compounds was calculated by the following equation: [formula]
as §1

Data set [1] can be described thus: Acute toxicity (LD50, p.o.). To be noted: rat, in vivo; oral, male Wistar rats. How it is done: The test compounds were orally administered to male Wistar rats, and the half lethal dose (LD50) was measured.
In data set [2] the test system is indomethacin-induced ulcer. In words: Indomethacin-induced ulcer. The data set is classed as in vivo, male Wistar rats. The settings on record: Rattus norvegicus, 5 h, oral, 30 minutes before indomethacin 20 mg/kg s.c., read-out: Inhibitory ratio of indomethacin-induced ulcer. How it is done: After male Wistar rats weighing about 160 g was fasted for 24 hours, indomethacin was subcutaneously administered to the rats in a dose of 20 mg/kg in the form of a suspension in a mixture of 0.5% CMC and a small amount of Tween 80 (i.e. polyoxyethylene sorbitan monooleate). After 5 hours, the rats were killed and the stomach was isolated. Into the isolated stomach 10% formalin (8 ml) was poured and settled. The stomach was cut open at the greater curvature, and the length of each ulcer on the membrane was measured, based on which results the inhibitory ratio of the indomethacin-induced ulcer of the test compounds was calculated in the same manner as in Pharmacological Test 2. The test compound was orally administered to the rats in a dose of 100 mg/kg in the form of 0.5% CMC suspension 30 minutes before the administration of indomethacin.
as §1

The mark [3] stands for this setting: read-out: Inhibitory ratio, volume of gastric juice.
The mark [4] stands for this setting: star-marked compounds, read-out: Inhibitory ratio, pepsin activity.
The mark [5] stands for this setting: star-marked compounds, read-out: Inhibitory ratio, total acidity.
[6] abbreviates: star-marked compounds, read-out: Inhibitory ratio, volume of gastric juice.
[7] abbreviates: read-out: Inhibitory ratio, pepsin activity.
[8] abbreviates: read-out: Inhibitory ratio, total acidity.

Usually LD50 stands for the dose expected to kill half of the subjects tested. Higher therefore signals lower toxicity.

Read-outs that look alike come from different tables or passages of the source.

With `Cn1nnnc1SCCC[S+]([O-])c1ccccn1` (stereo not drawn) [Test compound 44, 3-(1-Methyl-1,2,3,4-tetrazol-5-yl)thiopropyl 2-pyridyl sulfoxide], in the data set on gastric juice secretion (setting [3]), the inhibition in vivo at 100 mg/kg is greater than 50%. Besides, the inhibition in vivo in the data set on stress ulcer was greater than 60%. In data set [1], the LD50 was greater than 500 mg/kg.

For `Cc1nnc(SCCCSc2nnnn2C)o1` [compound 4], the inhibition in vivo at 100 mg/kg was 30 to 60% in the data set on gastric juice secretion (setting [4]), greater than 60% with gastric juice secretion (setting [5]), greater than 60% in the data set with gastric juice secretion (setting [6]) and greater than 60% in data set [2]. Also, in the data set with stress ulcer, the inhibition in vivo at 300 mg/kg is greater than 60%. Besides, in data set [1], the 50% lethal dose (LD50) is greater than 500 mg/kg.

`CCN(CC)C(=O)CCCn1nnnc1C` [Test compound 105, N,N-Diethyl-4-(5-methyl-1,2,3,4-tetrazol-1-yl)butyramide]: the inhibition in vivo at 200 mg/kg in the data set with gastric juice secretion (setting [7]), in the data set with gastric juice secretion (setting [8]) and in the data set on gastric juice secretion (setting [3]) was 10 to 50% in each case. Further, the inhibition in vivo at 100 mg/kg in data set [2] fell in the range of 30 to 60%. Further, in the data set on stress ulcer, the inhibition in vivo is greater than 60%. The LD50 in data set [1] is greater than 500 mg/kg.

On to `CCN(C(=O)CCCn1nnnc1C)C1CCCCC1` [Test compound 106, N-Ethyl-N-cyclohexyl-4-(5-methyl-1,2,3,4-tetrazol-1-yl)butyramide], for which the inhibition in vivo at 200 mg/kg with gastric juice secretion (setting [7]), with gastric juice secretion (setting [8]) and in the data set on gastric juice secretion (setting [3]) was 10 to 50% throughout. Further, in data set [2], the inhibition in vivo at 100 mg/kg lay in the range of 30 to 60%. The median lethal dose (LD50) in data set [1] was greater than 500 mg/kg.

Turning to `CC(=O)CSc1nnnn1C` [Test compound 67], the inhibition in vivo at 100 mg/kg in data set [2] is greater than 60%. The 50% lethal dose (LD50) in data set [1] was greater than 500 mg/kg.

With `CCSCCCSc1nnnn1C` [Test compound 7, 1-Methyl-5-(3-ethylthiopropyl)thio-1,2,3,4-tetrazole], the inhibition in vivo at 100 mg/kg in the data set on gastric juice secretion (setting [3]) was greater than 50%. In addition, in the data set with stress ulcer, the inhibition in vivo is greater than 60%. Further, the LD50 in data set [1] is greater than 500 mg/kg.

With `Cn1nnnc1SCCCSC1CCCCC1` [Test compound 3, 1-Methyl-5-(3-cyclohexylthiopropyl)thio-1,2,3,4-tetrazole], the inhibition in vivo at 100 mg/kg with gastric juice secretion (setting [5]) is greater than 60%; in the data set with gastric juice secretion (setting [6]), greater than 60%; in data set [2], 30 to 60%. Besides, the inhibition in vivo at 300 mg/kg in the data set on stress ulcer was greater than 60%.

Turning to `CCN(CC)CCCSc1nnnn1C` [Test compound 84, 1-Methyl-5-[3-(N,N-diethylamino)propyl]thio-1,2,3,4-tetrazole], the inhibition in vivo at 100 mg/kg in the data set on gastric juice secretion (setting [7]) was 10 to 50%; in the data set with gastric juice secretion (setting [8]) it was 10 to 50%; in the data set on gastric juice secretion (setting [3]) it was 10 to 50%; in data set [2], greater than 60%. Further, in the data set on stress ulcer, the inhibition in vivo was greater than 60%.

Regarding `Cn1nnnc1SCCCCCSc1nnnn1C` [Test compound 5, 1-Methyl-5-[5-(1-methyl-1,2,3,4-tetrazol-5-yl)thiopentyl]thio-1,2,3,4-tetrazole], the inhibition in vivo at 100 mg/kg was 30 to 60% with gastric juice secretion (setting [4]), greater than 60% with gastric juice secretion (setting [5]), greater than 60% in the data set on gastric juice secretion (setting [6]) and greater than 60% in data set [2]. Further, in the data set with stress ulcer, the inhibition in vivo is greater than 60%.
